The nature of data set [1]: Plasma pharmacokinetics after single oral administration. It counts as in vivo. The following applies: C57B16, mouse, oral 3 mg/kg. As for the experimental part:
(§1) The pharmacokinetics of compound 70 was evaluated after a single oral administration (3 mg/kg) in male C57B16 mice on a commercial rodent diet and water ad libitum prior to the study. Compound plasma levels were determined by LC-MS/MS and the pharmacokinetic parameters were determined using WinNonlin software (Pharsight Co., Mountain View, Calif.). Dosing solutions (0.6 mg/mL) were prepared in a vehicle comprising 2% hydropropyl-β-cyclodextrin in phosphate-buffered saline (PBS). Each time point (pre-dose, 15, 30, 60, 120, 240, 360, 480 and 1440 min post-dose) was dosed as N=3. Each blood sample was collected via cardiac puncture after euthanasia with CO2 and placed in chilled tubes containing sodium heparin. Samples were centrifuged at 4° C. at 13,000 rpm for 5 min followed by extracted with acetonitrile and then analyzed.
as §1, with “13.HCl” for “compound 70”

The nature of data set [2]: Plasma pharmacokinetics after single bolus intraperitoneal administration. It counts as in vivo, C57B16 mice. As to conditions: C57B16, mouse, Table 3, male mice, IP 3 mg/kg; for Tmax: read-out: tmax. As for the experimental part: as §1, with “13.HCl” for “compound 70”, “bolus intraperitoneal” for “oral”, “male and female” for “male”, “(pre-dose, 5, 10,” for “(pre-dose,”, “480,” for “360, 480 and”, “N=3/sex.” for “N=3.”
The pharmacokinetics of 44.HCl and 37.HCl were evaluated after a single bolus intraperitoneal administration (3 mg/kg) in male C57B16 mice on a commercial rodent diet and water ad libitum prior to the study. Compound plasma levels were determined by LC-MS/MS and the pharmacokinetic parameters were determined using WinNonlin software (Pharsight Co., Mountain View, Calif.). Dosing solutions (0.6 mg/mL) were prepared in a vehicle comprising 2% hydropropyl-β-cyclodextrin in phosphate-buffered saline (PBS). Each time point (pre-dose, 5, 10, 15, 30, 60, 120, 240, 480, 1440 min post-dose) was dosed as
N=3/sex. Each blood sample was collected via cardiac puncture after euthanasia with CO2 and placed in chilled tubes containing sodium heparin. Samples were centrifuged at 4° C. at 13,000 rpm for 5 min followed by extracted with acetonitrile and then analyzed.

Data set [3] has as its system BMP-induced phosphorylation of SMAD1/5/8. Description: BMP4-induced phosphorylation of SMAD1/5/8, cytoblot (cellular ELISA). It is filed as cell-based, murine. As to conditions: Mus musculus. As for the experimental part:
Murine pulmonary artery smooth muscle cells were isolated, explanted and cultured as previously described (see […] et al. Am. J. Physiol. Lung Cell Mol. Physiol. 280:[…], 2001) and then grown to confluence in 96 well tissue culture plates. Cells were incubated in serum-free medium for 18 h, and then incubated with recombinant BMP2, BMP4, BMP6, BMP9, GDF5, TGF-β, or Activin A ligands (R&D Systems, Minneapolis, Minn.) at varying concentrations in duplicate for 20 minutes. […] Specificity for BMP-mediated signaling was determined separately using a modification of the cellular ELISA technique assaying for the activation of SMAD2 or SMAD3 via TGF-β, or Activin A. A corresponding IC50 was calculated for the effects of these compounds upon those signaling pathways.
For orientation: In an ELISA, binding on a coated surface is turned into a signal by an enzyme label.

The test system of another data set is PDGFR-mediated signaling. Description: PDGF-induced AKT phosphorylation, cellular ELISA in PaSMCs. As to conditions: Mus musculus, PASMC; compounds 10 min, then PDGF 30 min; FIG. 2; read-out: functional IC50, PDGF-induced AKT phosphorylation. It counts as cell-based, murine. As for the experimental part:
To test the relative effects of dorsomorphin and structurally-related compounds upon PDGFR-mediated signaling, PDGF-induced AKT phosphorylation was measured by cellular ELISA via the detection of phospho-AKT in PaSMCs treated with compounds for 10 min. followed by PDGF for 30 min.

The nature of data set [4]: Serum iron levels (Ferene S assay) after IP injections. It counts as in vivo, C57BL/6 mice. As to conditions: two IP injections 10 mg/kg 12 h apart; 24 h after first injection. As for the experimental part:
In C57BL/6 mice, two IP injections of dorsomorphin (10 mg/kg) 12 h apart increased serum iron levels, measured by the Ferene S assay (ThermoFisher Scientific, Waltham, Mass.) measured 24 h after first injection by over 60%. (see FIG. 4; n=8 vehicle, n=7 dorsomorphin, P<0.001). Results are expressed as mean±SD.

Data set [5] in a line: Microsomal stability in pooled mouse liver microsomes. It is filed as in vitro ADME. The following applies: 0.5 mg/mL microsome protein, 1 mM NADPH. As for the experimental part: Test compound (3 μM final concentration) along with 0.5 mg/mL microsome protein and 1 mM NADPH was incubated for 0, 5, 15, 30 and 60 min. Incubation of test compound and microsomes in the absence of NADPH served as a negative control. The samples were quenched with methanol and centrifuged for 20 min at 2500 rpm to precipitate proteins. Sample supernatants were analyzed (N=3) by LC/MS. The ln peak area ratio (compound peak area/internal standard peak area) was plotted against time and the slope of the line determined to give the elimination rate constant [k=(−1)(slope)]. The half life (t1/2 in minutes) and the in vitro intrinsic clearance (CLint in μL/min/mg protein) values were calculated according to the following equations, where V=incubation volume in μL/mg protein: […]
Background: Microsomes from liver hold many membrane-bound enzymes, among them those of drug oxidation.

Data set [6] concerns IL6-induced hepcidin expression in HepG2 cells. Description: IL6-induced hepcidin expression in HepG2 hepatoma cells. As to conditions: pretreatment; data not shown. It counts as cell-based, human. As for the experimental part: HepG2 cells pretreated with compound 13 (5-625 nM) or vehicle for 30 min. were incubated with IL6 (50 ng/mL) for 1.5 h. Cells were harvested, and hepcidin mRNA and 18S rRNA levels were measured by quantitative RT-PCR. Changes in gene expression were normalized to 18S ribosomal RNA levels using the relative cycle threshold method.

[7] abbreviates: approximate IC50, cellular ELISA, murine pulmonary artery smooth muscle cells, read-out: IC50 for inhibition of BMP-induced phosphorylation of SMAD1/5/8.

Molecules are shown by their SMILES. Counter-ions that a name gives are not always drawn. Like-named read-outs stand apart in the source and are kept apart here.

As to `Cl.c1ccc2c(-c3cnn4cc(-c5ccc(N6CCNCC6)cc5)cnc34)ccnc2c1` [13•HCl, 4-[6-(4-piperazin-1-ylphenyl)pyrazolo[1,5-a]pyrimidin-3-yl]quinoline hydrochloride salt], in data set [1] (Table 5, male mice), the AUC(0-inf) worked out at 919 ng·h/mL, the maximum concentration (Cmax) was 690 nM, the Tmax is 1 h and the half-life was 1.1 h.

Take `c1ccc2c(-c3cnn4cc(-c5ccc(N6CCNCC6)cc5)ccc34)ccnc2c1` [37•HCl, 4-[6-(4-Piperazin-1-ylphenyl)pyrazolo[1,5-a]pyridin-3-yl]-quinoline]: in data set [2], the AUC(0-inf) was 207 ng·h/mL, the Cmax was determined as 290 nM, the half-life is 2.2 h and the Tmax was less than 0.25 h.

For the molecule `COC1(c2ccc(-c3cnc4c(-c5ccnc6ccccc56)cnn4c3)cc2)CCNCC1` [44•HCl, 4-(6-(4-(4-methoxypiperidin-4-yl)phenyl)pyrazolo[1,5-a]pyrimidin-3-yl)quinoline], in data set [2], the area under the curve AUC(0-inf) is 583 ng·h/mL, the concentration peaked (Cmax) at 660 nM, the half-life was 1.4 h and the Tmax was less than 0.25 h.

Turning to `COc1ccc(-c2cnc3c(-c4ccncc4)cnn3c2)cc1` [4-OMe-Ph, 4-Py, H, N, N, 6-(4-Methoxyphenyl)-3-pyridin-4-yl-pyrazolo[1,5-a]pyrimidine], the IC50 in data set [3] (setting [7]) was greater than 1000 nM.

As for `COc1ccc(-c2cnc3c(-c4ccnc5ccccc45)ccn3c2)cc1` [4-OMe-Ph, 4-quinolinyl, H, N, CH, 4-[3-(4-Methoxyphenyl)pyrrolo[1,2-a]pyrimidin-8-yl]quinoline], the IC50 in data set [3] (setting [7]) is greater than 20000 nM.

Regarding `c1cc(-c2cnn3cc(-c4ccc(OCCN5CCCCC5)cc4)cnc23)ccn1` [Dorsomorphin, reference compound], the IC50 in data set [3] (FIG. 1, approximate, read-out: functional IC50, BMP4-induced SMAD1/5/8 phosphorylation) is roughly 400 nM; in the data set on PDGFR-mediated signaling, roughly 500 nM. The “increase of serum iron levels” value in data set [4] is “over 60%”. Besides, the half-life at 3 μM in data set [5] (read-out: half-life (t1/2) in mouse liver microsomes) turned out to be 0.173 h. The microsomal CLint at 3 μM in data set [5] (read-out: intrinsic clearance (CLint) in mouse liver microsomes) was found to be 133 ± 6.6 µL/min/mg.

For the molecule `OC1(c2ccc(-c3cnc4c(-c5ccnc6ccccc56)cnn4c3)cc2)CCNCC1` [Compound 70, 4-(4-(3-(quinolin-4-yl)pyrazolo[1,5-a]pyrimidin-6-yl)phenyl)piperidin-4-ol], in data set [1] (Table 4, male mice), the total exposure AUC(0-inf) was 143 ng·h/mL, the concentration peaked (Cmax) at 100 nM, the Tmax turned out to be 0.25 h and the half-life is 1.7 h.

For `C[C@@H]1C[C@@H]([C@H](O)CC2CC(=O)NC(=O)C2)C(=O)[C@@H](C)C1` [cycloheximide, reference compound], the “ability of IL6 to induce hepcidin gene expression” value in data set [6] was “did not block the ability of IL6 to induce hepcidin gene expression”.

Regarding `COC(=O)c1cc(-c2ccnc3ccccc23)c2ncc(-c3ccc(OC)cc3)cn12` [4-OMe-Ph, 4-quinolinyl, H, N, CCO2Me, Methyl 3-(4-methoxyphenyl)-8-quinolin-4-yl-pyrrolo[1,2-a]pyrimidine-6-carboxylate], in data set [3] (setting [7]), the IC50 was greater than 20000 nM.

Turning to `COc1ccc(-c2ccc3c(-c4ccnc5ccccc45)cnn3c2)cc1` [4-OMe-Ph, 4-quinolinyl, H, CH, N, 4-[6-(4-Methoxyphenyl)pyrazolo[1,5-a]pyridin-3-yl]quinoline], the IC50 in data set [3] (setting [7]) is less than 500 nM.

What is called AUC(0-inf) is the area under the concentration-time curve extrapolated to infinity. Low readings indicate less exposure, high ones more exposure. In general, Cmax refers to the peak of the concentration-time curve. As a reminder, the Tmax is the time at which the peak concentration occurs.

The values are drawn from patent US9045484B2, “Inhibitors of the BMP signaling pathway” (The Brigham and Women's Hospital, Inc., priority 2008, dated 2015).
